In US20080220056A1, “Treatment for liver disease” (UNIVERSITY OF SOUTHAMPTON, priority 2002, published 2008):

Legend:
[1] = system: carbon tetrachloride model of liver fibrosis; experiment: Carbon tetrachloride (in vivo) model of liver fibrosis, single gliotoxin injection; design: species or system rat; settings: for Serum ALP / Serum ALT: killed 24 hours after gliotoxin
Description: Rats were randomly sorted into groups and treated with 2 mL CCl4:olive oil (1:1 [vol/vol])/kg body weight by intraperitoneal injection twice weekly to cause liver fibrosis. Control animals were treated with 1 mL olive oil/kg body weight by intraperitoneal injection. Gliotoxin was administered at up to 3 mg gliotoxin/kg body weight by intraperitoneal injection. Gliotoxin was dissolved in dimethyl sulfoxide (DMSO) as a vehicle, and control animals received DMSO alone.
At the required time, rats were killed by carbon dioxide asphyxiation and tissues removed for analysis. Serum was prepared and analyzed for alkaline phosphatase and alanine aminotransferase activities essentially as previously described. (Wright et al., Biochem. Pharmacol., (1992) 43:237-243) Histochemical staining of formalin-fixed liver sections with H&E, Sirius red, and immunochemical staining for α-smooth muscle actin were performed essentially as previously described (Iredale et al.,—1998—supra)
The effect of a single injection of gliotoxin on α-smooth muscle actin liver immunostaining after treatment for seven weeks with carbon tetrachloride was then determined. One day after the final injection of carbon tetrachloride, rats were administered gliotoxin and killed after a further day.
The effect of a single injection of gliotoxin on liver TUNEL staining after treatment for seven weeks with carbon tetrachloride was measured. One day after the final injection of carbon tetrachloride, rats were administered gliotoxin and then killed after a further day. Control animals received DMSO alone in place of gliotoxin. Liver sections from the rats were TUNEL stained with or without the incorporation of dUTP in the staining protocol. Sections were then counterstained with hematoxylin.
The effect of a single injection of gliotoxin on liver sirius red staining after treatment for seven weeks with carbon tetrachloride was then determined. As before, one day after the final injection of carbon tetrachloride, rats were administered gliotoxin and killed after a further day.

[2] = system: NF-kB DNA binding activity; experiment: Electromobility shift assay for NF-kB DNA binding activity in rat hepatic stellate cells; format: cell-based; settings: activated rat HSC
Description: Crude high salt extractable nuclear protein was prepared from activated hepatic stellate cells for analysis of NF-kB DNA binding activity essentially as described (Elsharkawy et al., supra), aliquoted and stored at −80° C. until required. Extract protein concentrations were determined using the Lowry colorimetric assay (Lowry et al., supra) with bovine serum albumin as standard. A double stranded 5′ end labeled radiolabeled oligonucleotide [sense 5′-[…]-[…] (SEQ ID NO:1)] containing a consensus NF-kB DNA binding site as underlined (Baldwin et al., Annu. Rev. Immunol., (1996) 14:649-681) was used to determine NFkB DNA binding activity in crude nuclear extracts (Elsharkawy et al., supra).
The effect of gliotoxin on NF-kB activity in hepatic stellate cells was investigated. Culture-activated (14-day) rat hepatic stellate cells were incubated in the presence or absence of 10 ng/mL TNF-α fifteen minutes after addition of:
After a further 30 minutes, and before any significant morphologic changes, cells were washed with ice-cooled PBS, nuclear extracts prepared, and NF-kB DNA binding activity assessed by gel shift analysis. […] Each lane contained […] of protein and the results were the same for at least three separate experiments.

[3] = Pilot study for gliotoxin toxicity in rats; format: in vivo, rat; settings: 3 mg/kg body weight
hepatic stellate cells = experiment: Nerve growth factor induced apoptosis of hepatic stellate cells; format: cell-based; settings: NGF 100 ng/ml, serum-free; TIMP-1 142.5 ng/ml
Description: Apoptosis of hepatic stellate cells was induced by absolute serum deprivation, cycloheximide treatment (Issa et al., Gut (2001) 48: S48-S57), or exposure to nerve growth factor as previously described (Trim et al., Am. J. Pathol., (2000) 156, 1235-1243). Hepatic stellate cells were cultured in 24-well tissue culture plates. Rat and human hepatic stellate cells were exposed to proapoptotic stimuli with and without recombinant TIMP-1 (Biogenesis, Poole, UK) and other manipulations as detailed below. Following a 4 hour incubation at 37° C., nuclear morphology was assessed by adding acridine orange to each well (final concentration 1 μg/ml) and observing the cells under blue fluorescence. The total number of apoptotic bodies was counted, and any apoptotic bodies floating in the supernatant were included by racking up the objective lens. The total number of cells per field was counted, and an apoptotic index was calculated. Each condition was performed in duplicate, and three high power fields were counted for each well. […] To examine for autocrine effects, hepatic stellate cells were incubated for 18 hours with azide-free polyclonal neutralizing antibodies to TIMP-1 and a nonimmune IgG control (Santa Cruz Biotechnology, Inc., Santa Cruz, Calif.), and responses were assessed by acridine orange staining and counting. […]

[4] = system: caspase-3 activity in hepatic stellate cells; experiment: Caspase-3 activity in cycloheximide-treated hepatic stellate cells; format: cell-based; settings: 50 μM cycloheximide
Description: Apoptosis was quantified by a colorimetric assay for caspase-3 activity (Promega) according to the manufacturer's instructions.
Caspase-3 is a central caspase in the proapoptotic cascade (Hengartner, Nature (2000) 407, 770-776) and can be used as an alternative assay to assess apoptosis. Hepatic stellate cells were cultured in 50 μM cycloheximide with TIMP-1 at a concentration of 0, 1, 10, or 100 ng/ml. Controls where cells were incubated with either the caspase 3 inhibitor benzyloxycarbonyl-Val-Ala-Asp-fluoromethylketone or serum alone were also performed. Data are expressed as mean ±S.E. and are presented as percentage of control given the arbitrary value of 100%. * indicates p<0.001; n=3. […] Although the mean caspase-3 activity of the cells treated with 10 ng/ml TIMP-1 was slightly lower than that treated with 100 ng/ml of TIMP-1, this was not statistically significant (p=0.67 by Student's t test).

[5] = single gliotoxin injection 0.3 mg/kg i.p., CCl4 twice weekly seven weeks
[6] = single gliotoxin injection 0.3 mg/kg i.p., no CCl4 (olive oil seven weeks)
[7] = single gliotoxin injection 3 mg/kg i.p., CCl4 twice weekly seven weeks
[8] = single gliotoxin injection 3 mg/kg i.p., no CCl4 (olive oil seven weeks)

CN1C(=O)[C@]23CC4=CC=C[C@H](O)[C@H]4N2C(=O)[C@@]1(CO)SS3 [gliotoxin]
reduction in number of α-smooth muscle actin-positive cells in CCl4 treated rat liver ([1]; single dose of 3 mg/kg body wt): 57% | Liver α-sma staining (number of α-sma-positive cells) [1, 5]: 35 ± 11.4 | Sirius red staining (mid intralobular μm) [1, 5]: 9 ± 2.3 μm | Serum ALP [1, 5]: 790 ± 128 μ/mL | Serum ALT [1, 5]: 1310 ± 342 μ/mL | Liver α-sma staining (number of α-sma-positive cells) [1, 6]: 2.5 ± 0.70 | Sirius red staining (mid intralobular μm) [1, 6]: 0 μm | Serum ALP [1, 6]: 336 ± 48 μ/mL | Serum ALT [1, 6]: 59 ± 4 μ/mL | Liver α-sma staining (number of α-sma-positive cells) [1, 7]: 16 ± 6.4 | Sirius red staining (mid intralobular μm) [1, 7]: 7 ± 3.6^£ μm | Serum ALP [1, 7]: 755 ± 295 μ/mL | Serum ALT [1, 7]: 1740 ± 1100 μ/mL | Liver α-sma staining (number of α-sma-positive cells) [1, 8]: 1.2 ± 0.24 | Sirius red staining (mid intralobular μm) [1, 8]: 0 μm | Serum ALP [1, 8]: 269 ± 25 μ/mL | Serum ALT [1, 8]: 50 ± 5 μ/mL | TUNEL-positive cells in liver regions staining for α-smooth muscle actin ([1]; single gliotoxin injection after seven weeks CCl4): increase in the number of TUNEL-positive cells | fibrosis on blinded examination of sirius red stained liver sections ([1]; single injection of gliotoxin at 3 mg/kg after seven weeks CCl4): significantly reduced fibrosis | change in serum liver enzyme levels ([1]; single injection of gliotoxin to control or carbon tetrachloride treated rats): did not result in any significant change in serum liver enzyme levels | TNF-α-inducible NF-kB DNA binding activity ([2]; 10 ng/mL TNF-α, same concentrations as for constitutive activity): inhibits TNF-α-inducible NF-kB DNA binding activity | constitutive NF-kB DNA binding activity ([2]; gliotoxin 1.5 μmol/L, N-acetyl cysteine 5 mM, calpain inhibitor 1 50 μM, dexamethasone 0.5 μm, pentoxyfilline 3.6 mM): does not have a marked inhibitory effect | apparent ill effects [3]: did not cause any apparent ill effects in rats | hepatic damage on histologic sections of the liver [3]: no evidence of hepatic damage

TIMP-1: recombinant tissue inhibitor of matrix metalloproteases 1 (Biogenesis)
apoptosis induced by exposure to NGF (hepatic stellate cells): significantly inhibited | reduction in caspase-3 activity ([4]; TIMP-1 10 ng/ml): 50% | reduction in apoptosis measured by caspase-3 activity ([4]; TIMP-1 100 ng/ml): 50% | caspase-3 activity ([4]; TIMP-1 1-100 ng/ml): dose-dependent reduction in caspase-3 activity
